# Like-named read-outs stand apart in the source and are kept apart here.
# Experiments:
# Toxoplasma gondii = assay: In vitro anti-Toxoplasma proliferation in infected HFF monolayers (parasitic index, ScanR microscopy); format: cell-based
# Experimental: To investigate the effect of the JF363 on parasite proliferation, human HFFs were infected and treated with JF363 (concentrations ranging from 0 to 2 μM). After 24 h of culture, parasites were enumerated within the parasitophorous vacuole, and the IC50 was calculated for each parasite strain (Table 1).
# To assess the drug activity on Toxoplasma gondii, confluent HFF monolayers were infected with parasites, 5 × 10^4 per well, then centrifuged for 30 s at 500× g and incubated for 30 min in a water bath at 37 °C to allow invasion. The wells were then washed three times with phosphate-buffered saline (PBS) to eliminate extracellular parasites, and drugs were added at various concentrations ranging from 1 to 2 μM in triplicate. After 24 h incubation at 37 °C in a humidified atmosphere containing 5% CO2, Hoechst 33342 (5 μg/mL) was added to host cells infected by parasites and further incubated for 20 min. After two washes, cells were fixed with 3.7% formaldehyde for 10 min at 37 °C.
# In experiments using nonfluorescent parasites, Toxoplasma vacuoles were fixed for 15 min with 3.7% formaldehyde and stained with anti-GRA1 mAb diluted 1/500 in 2% bovine serum albumin (BSA) and 0.1% Triton X-100 in PBS, for 1 h at room temperature. After two washes, goat serum anti-mouse IgG (H + L)–Alexa-488 (1/500) was added for 20 min. Finally, Hoechst 33342 was added as described above.
# The number of infected cells, i.e., cells harboring parasitophorous vacuoles, and the number of parasites per vacuole were determined using an Olympus ScanR microscope (×20 objective) and ScanR software. First, the parasitic index (PI) in % compared to the control was calculated as follows: PI = ((number of parasite/100 cells in treated wells) × (% of infected HFFs in treated well)/(number of parasite/100 cells in untreated wells) × (% of infected HFFs in untreated wells)) × 100. Then, the 50% inhibitory concentration (IC50) was calculated using Prism software (Prism 4 for Mac OS X, version 5.0b, San Diego, CA, USA).
# [1] = mouse, in vivo
# [2] = system: T. gondii type II Prugniaud strain; assay: Chronic phase study: brain cyst burden in infected CBA mice; format: in vivo, mouse
# Experimental: To assess the efficacy of compound JF363 on Toxoplasma cyst formation, infected CBA mice were treated for 15 days, two months post-infection. Then, 15 days later, mice were sacrificed, and brain cysts were counted.
# Inbred CBA mice (Janvier Labs, Le Genest-Saint-Isle, France) were infected with 500 tachyzoites of Pru-DeltaKu80::HX strain. One month post-infection, effective infection was assessed by ELISA as described previously. Two months post-infection, mice were treated with 20 or 40 mg/kg of JF363 (corn oil/5% DMSO) for 15 days. Animals were sacrificed 15 days later, corresponding to 3 months post-infection, and brain cysts were counted. After removal and homogenization of mouse’s brain in 4 mL of PBS, suspensions were clarified by gentle incubation in proteinase K buffer (proteinase K 0.4 mg/mL, 10 mM Tris pH 8, ethylenediaminetetraacetic acid (EDTA) 1 mM, sodium dodecyl sulfate (SDS) 0.2%, sodium chloride 40 mM) for 15 min at 56 °C. The reaction was stopped by adding phenylmethylsulfonyl fluoride (PMSF) 2 mM and further incubation for 5 min at room temperature. The suspension was then washed with PBS and resuspended with fluorescein isothiocyanate (FITC)–Dolichos biflorus agglutinin (Vector Laboratories, CA, USA) […] for 30 min, at room temperature. At the end of the incubation, the suspension was washed with PBS and resuspended in a final volume of 1 mL of PBS distributed into six-well culture plates (1 brain per well). The number of cysts was counted by exanimation under an Axiovert 40 CFL inverted fluorescence microscope, Zeiss.
# [3] = system: T. gondii type I RH strain; assay: Acute toxoplasmosis survival study in CD1 mice; format: in vivo, mouse; settings: for mouse survival, by day: once a day for 7 days, untreated infected mice succumbed by day 9
# Experimental: To determine the in vivo anti-Toxoplasma effect of the molecule JF363 during the acute phase of infection, we analyzed the survival rate of non-inbred CD1 mice infected by the type I RH strain treated for […]. […] All untreated and infected mice succumbed by day 9 (Figure 3).
# Non-inbred CD1a mice (Janvier Labs, Le Genest-Saint-Isle, France) were intraperitoneally infected with 100 tachyzoites of RH YFP strain in […] of PBS. Six hours post-infection and then once a day for 7 days, mice were treated per os with either 40 or 160 mg/kg of JF363 prepared in corn oil/5% DMSO. Control animals were treated with the vehicle alone. Animals were monitored each day and sacrificed when the limit points were reached.
# [4] = system: P. berghei hepatic infection; assay: In vitro P. berghei hepatic infection of Huh7 cells (bioluminescence); format: cell-based; settings: Plasmodium berghei, Huh-7
# Experimental: Huh7 cells, a human hepatic cell line employed in the assessment of drug activity against the hepatic stage of P. berghei infection, were cultured in RPMI 1640 supplemented with 10% (v/v) fetal bovine serum, 1% (v/v) penicillin/streptomycin, 1% (v/v) glutamine, 1% (v/v) nonessential amino acids, and 10 mM N-2-hydroxyethylpiperazine-N′-2-ethanesulfonic acid (HEPES) at 37 °C and 5% CO2. For infection, Huh7 cells were seeded in 96-well plates at 1 × 10^4 cells/well.
# Liver stage. The action of JF363 against the liver stage of P. berghei infection was assessed by bioluminescence, as previously described. Briefly, one day before infection, Huh7 cells were seeded in 96-well plates. JF363 stock solution was prepared in dimethyl sulfoxide (DMSO) and serially diluted in infection medium (culture medium supplemented with 50 µg/mL of gentamicin and 0.8 µg/mL of fungizone) to obtain the test concentrations (1, 10, 25, 50, […], 500 nM). […] At 46 h post-infection, the impact of the compound on cell viability was assessed by the AlamarBlue assay (Invitrogen, Carlsbad, CA, USA), following the manufacturer’s instructions. Following the manufacturer’s instructions, the drug’s effect on the parasite load was next evaluated using the Firefly Luciferase Assay Kit 2.0 (Biotium, Fremont, CA, USA). […]
smiles,measurement,setting,value
COc1cccc(CC(=O)Nc2ccc(C(=O)NO)cc2)c1 [JF363],IC50,"Toxoplasma gondii; 24 h, read-out: IC50 range, strains other than haplogroup I and II, 24 h",170 to 430 nM
same,IC50,"Toxoplasma gondii; 24 h, strain GUY008-ABE, haplogroup 5, clade F, 24 h, mean ± SD of 3 experiments",300 ± 210 nM
same,IC50,"Toxoplasma gondii; 24 h, strain GUY009-AKO, haplogroup 10, clade F, 24 h, mean ± SD of 3 experiments",430 ± 120 nM
same,IC50,"Toxoplasma gondii; 24 h, strain GUY021-TOJ, haplogroup 10, clade F, 24 h, mean ± SD of 3 experiments",270 ± 30 nM
same,IC50,"Toxoplasma gondii; 24 h, strain GUY-JAG1, haplogroup 11, no clade, 24 h, mean ± SD of 3 experiments",170 ± 340 nM
same,IC50,"Toxoplasma gondii; 24 h, strain MAS, haplogroup 4, clade B, 24 h, mean ± SD of 3 experiments",210 ± 10 nM
same,IC50,"Toxoplasma gondii; 24 h, strain Prugniaud, haplogroup 2, clade D, 24 h, mean ± SD of 3 experiments",270 nM
same,IC50,"Toxoplasma gondii; 24 h, strain RH-YFP, haplogroup 1, clade A, 24 h, mean ± SD of 3 experiments",560 ± 50 nM
same,IC50,"Toxoplasma gondii; 24 h, strain VEG, haplogroup 3, clade C, 24 h, mean ± SD of 3 experiments",180 ± 70 nM
same,IC50,"Toxoplasma gondii; all tested T. gondii strains, depending on the haplogroup, read-out: IC50 range",170 to 560 nM
same,"toxicity in healthy treated mice (survival, hair loss, erythema, organ failure)",[1],not toxic
same,diminution of cyst burden in the brain compared to untreated animals,[2]; 40 mg/kg,65%
same,"number of brain cysts, range","[2]; 40 mg/kg oral for 15 days, two months post-infection, nontreated 76 to 312",21–85
same,number of brain cysts (mean ± SD),"[2]; 40 mg/kg oral for 15 days, two months post-infection, nontreated 168 ± 95, p < 0.05",57 ± 29
same,"mouse survival, by day",[3]; 40 mg/kg oral,11 days
same,increase of mouse survival,"[3]; 40 mg/kg oral, lethal dose of RH strain",two days
same,"mouse survival, by day",[3]; 160 mg/kg oral,14 days
same,IC50,"[4]; Pb hepatic infection, Huh7 cells, 46 h post-infection",98.9 ± 22.7 nM
same,IC50,[4]; hepatic stage of Plasmodium infection (discussion),~100 nM
